Laboratory results from article PMC6084004 (2017).

Row | melting point [°C] | SMILES
1 | 298 to 301 | Nc1ncnc2c1c1cc(Cl)ccc1n2[C@@H]1O[C@H](CO)[C@@H](O)[C@@H]1O
2 | 238 to 241 | COc1ncnc2c1c1cc(Cl)ccc1n2[C@@H]1O[C@H](CO)[C@@H](O)[C@@H]1O
3 | 181 to 183 | CSc1ncnc2c1c1cc(Cl)ccc1n2[C@@H]1O[C@H](CO)[C@@H](O)[C@@H]1O
4 | 233 to 235 | Cc1ncnc2c1c1cc(Cl)ccc1n2[C@@H]1O[C@H](CO)[C@@H](O)[C@@H]1O
5 | 241 to 243 | OC[C@H]1O[C@@H](n2c3ccc(Cl)cc3c3c(-c4ccco4)ncnc32)[C@@H](O)[C@@H]1O
6 | 186 to 188 | OC[C@H]1O[C@@H](n2c3ccc(Cl)cc3c3c(-c4ccoc4)ncnc32)[C@@H](O)[C@@H]1O
7 | 192 to 194 | OC[C@H]1O[C@@H](n2c3ccc(Cl)cc3c3c(-c4cccs4)ncnc32)[C@@H](O)[C@@H]1O
8 | 207 to 209 | OC[C@H]1O[C@@H](n2c3ccc(Cl)cc3c3c(-c4ccsc4)ncnc32)[C@@H](O)[C@@H]1O
9 | 183 to 185 | OC[C@H]1O[C@@H](n2c3ccc(Cl)cc3c3c(-c4ccccc4)ncnc32)[C@@H](O)[C@@H]1O
10 | 275 to 278 | Nc1ncnc2c1c1cc(Cl)ccc1n2[C@@H]1O[C@H](CO)[C@@H](O)[C@H]1F
11 | 205 to 209 | CSc1ncnc2c1c1cc(Cl)ccc1n2[C@@H]1O[C@H](CO)[C@@H](O)[C@H]1F
12 | 247 to 251 | Cc1ncnc2c1c1cc(Cl)ccc1n2[C@@H]1O[C@H](CO)[C@@H](O)[C@H]1F
13 | 203 to 206 | OC[C@H]1O[C@@H](n2c3ccc(Cl)cc3c3c(-c4ccco4)ncnc32)[C@H](F)[C@@H]1O
14 | 184 to 186 | OC[C@H]1O[C@@H](n2c3ccc(Cl)cc3c3c(-c4ccoc4)ncnc32)[C@H](F)[C@@H]1O
15 | 206 to 211 | OC[C@H]1O[C@@H](n2c3ccc(Cl)cc3c3c(-c4cccs4)ncnc32)[C@H](F)[C@@H]1O
16 | 221 to 222 | OC[C@H]1O[C@@H](n2c3ccc(Cl)cc3c3c(-c4ccsc4)ncnc32)[C@H](F)[C@@H]1O
17 | 192 to 193 | OC[C@H]1O[C@@H](n2c3ccc(Cl)cc3c3c(-c4ccccc4)ncnc32)[C@H](F)[C@@H]1O
18 | 267 to 272 | Nc1ncnc2c1c1cc(Cl)ccc1n2[C@@H]1O[C@H](CO)[C@@H](O)[C@@H]1F
19 | 248 to 250 | COc1ncnc2c1c1cc(Cl)ccc1n2[C@@H]1O[C@H](CO)[C@@H](O)[C@@H]1F
20 | 230 to 231 | CSc1ncnc2c1c1cc(Cl)ccc1n2[C@@H]1O[C@H](CO)[C@@H](O)[C@@H]1F
21 | 211 to 216 | Cc1ncnc2c1c1cc(Cl)ccc1n2[C@@H]1O[C@H](CO)[C@@H](O)[C@@H]1F
22 | 75 to 81 | OC[C@H]1O[C@@H](n2c3ccc(Cl)cc3c3c(-c4ccco4)ncnc32)[C@@H](F)[C@@H]1O
23 | 208 to 214 | OC[C@H]1O[C@@H](n2c3ccc(Cl)cc3c3c(-c4ccoc4)ncnc32)[C@@H](F)[C@@H]1O
24 | 225 to 227 | OC[C@H]1O[C@@H](n2c3ccc(Cl)cc3c3c(-c4cccs4)ncnc32)[C@@H](F)[C@@H]1O
25 | 240 to 241 | OC[C@H]1O[C@@H](n2c3ccc(Cl)cc3c3c(-c4ccsc4)ncnc32)[C@@H](F)[C@@H]1O
26 | 214 to 216 | OC[C@H]1O[C@@H](n2c3ccc(Cl)cc3c3c(-c4ccccc4)ncnc32)[C@@H](F)[C@@H]1O
